# Laboratory results taken from US9790210B2, “N-(monocyclic aryl),N'-pyrazolyl-urea, thiourea, guanidine and cyanoguanidine compounds as TrkA kinase inhibitors” (Array BioPharma Inc., priority 2012, dated 2017).
# Counter-ions that a name gives are not always drawn.
# Molecular target: TrkA (Homo sapiens, UniProt P04629)
# Assay: TrkA LanthaScreen Eu Kinase Binding Assay
# Set-up: 6HIS tagged cytoplasmic domain from Invitrogen, Catalog No. PV3144; purchased Invitrogen PV3144
# Conditions: averaged IC50; TR-FRET binding assay; read-out: TrkA Enzyme IC50
# Experimental: TrkA binding activity was determined in a TrkA LanthaScreen™ Eu Kinase Binding Assay. 5 nM His-tagged recombinant human TrkA (6HIS tagged cytoplasmic domain from Invitrogen, Catalog No. PV3144) was incubated with 4 nM Alexa-Fluor® Tracer 236 (Invitrogen Cat. No. PV5592), 2 nM biotinylated anti-His (Invitrogen Cat. No. PV6090), and 2 nM europium-labeled Streptavidin (Invitrogen Cat. No. PV5899), in buffer (25 mM MOPS, pH 7.5, 5 mM MgCl2, 0.005% Triton X-100). Three fold serial dilutions of compounds of the invention in DMSO were added to a final percentage of 2% DMSO. After 60-minute incubation at 22° C., the reaction was measured using the EnVision mutlimode plate reader (PerkinElmer) via TR-FRET dual wavelength detection at […]. The percent of control was calculated using a ratiometric emission factor. The IC50 values were determined by fitting a four parameter model to the percent of control data.
# Table A provides averaged IC50 values for compounds of the invention when tested in the assay of Example A, where A represents an averaged IC50 value<100 nM; B represents an averaged IC50 value from 100 to 1,000 nM; and C represents an averaged IC50 value from 1,000 to 10,000 nM.
# TrkA, sequence (P04629 440-796 limits assumed): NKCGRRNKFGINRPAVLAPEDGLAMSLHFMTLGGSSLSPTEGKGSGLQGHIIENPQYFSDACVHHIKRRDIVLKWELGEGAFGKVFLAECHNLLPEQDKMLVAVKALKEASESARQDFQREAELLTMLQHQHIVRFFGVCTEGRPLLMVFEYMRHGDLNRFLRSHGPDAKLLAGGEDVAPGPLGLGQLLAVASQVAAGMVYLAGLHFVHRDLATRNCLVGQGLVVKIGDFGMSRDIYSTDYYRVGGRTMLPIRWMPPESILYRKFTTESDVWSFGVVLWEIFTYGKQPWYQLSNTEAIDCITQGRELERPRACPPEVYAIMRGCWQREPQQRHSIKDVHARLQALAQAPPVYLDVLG
row,IC50,SMILES
1,< 100 nM,"COCCCc1ccc(C(F)(F)F)cc1NC(=O)Nc1c(C)c(-c2ccc(=O)n(C)c2)nn1-c1ccccc1 [Example 25, 1-(2-(3-methoxypropyl)-5-(trifluoromethyl)phenyl)-3-(4-methyl-3-(1-methyl-6-oxo-1,6-dihydropyridin-3-yl)-1-phenyl-1H-pyrazol-5-yl)urea]"
2,< 100 nM,"COCCCc1cc(Cl)c(Cl)cc1NC(=O)Nc1c(C)c(C2CCN(C)CC2)nn1-c1ccccc1 [Example 18, 1-(4,5-dichloro-2-(3-methoxypropyl)phenyl)-3-(4-methyl-3-(1-methylpiperidin-4-yl)-1-phenyl-1H-pyrazol-5-yl)urea]"
3,< 100 nM,"COCCCc1cc(Cl)c(Cl)cc1NC(=O)Nc1c(C)c(OC[C@H]2CCCN(C)C2)nn1-c1ccccc1 [Example 34, (S)-1-(4,5-dichloro-2-(3-methoxypropyl)phenyl)-3-(4-methyl-3-((1-methylpiperidin-3-yl)methoxy)-1-phenyl-1H-pyrazol-5-yl)urea]"
4,< 100 nM,"COCCCc1cc(Cl)c(Cl)cc1NC(=O)Nc1c(C)c(OCCN2CCN(C)CC2)nn1-c1ccccc1 [Example 28, 1-(4,5-dichloro-2-(3-methoxypropyl)phenyl)-3-(4-methyl-3-(2-(4-methylpiperazin-1-yl)ethoxy)-1-phenyl-1H-pyrazol-5-yl)urea]"
5,< 100 nM,"COCCCc1cc(Cl)c(Cl)cc1NC(=O)Nc1c(C)c(OCCC2CCNCC2)nn1-c1ccccc1 [Example 40, 1-(4,5-dichloro-2-(3-methoxypropyl)phenyl)-3-(4-methyl-1-phenyl-3-(2-(piperidin-4-yl)ethoxy)-1H-pyrazol-5-yl)urea hydrochloride]"
6,< 100 nM,"COCCCc1cc(Cl)c(Cl)cc1NC(=O)Nc1c(C)c(-c2ccc(=O)n(C)c2)nn1-c1ccccc1 [Example 13, 1-(4,5-dichloro-2-(3-methoxypropyl)phenyl)-3-(4-methyl-3-(1-methyl-6-oxo-1,6-dihydropyridin-3-yl)-1-phenyl-1H-pyrazol-5-yl)urea]"
7,< 100 nM,COCCCc1cc(Cl)c(Cl)cc1NC(=O)Nc1c(C)c(OCC2CCN(C)CC2)nn1-c1ccccc1 [Example 24]
8,< 100 nM,"COCCCc1cc(Cl)c(Cl)cc1NC(=O)Nc1c(C)c(OC[C@H]2CCCNC2)nn1-c1ccccc1 [Example 46, (S)-1-(4,5-dichloro-2-(3-methoxypropyl)phenyl)-3-(4-methyl-1-phenyl-3-(piperidin-3-ylmethoxy)-1H-pyrazol-5-yl)urea hydrochloride]"
9,< 100 nM,"COCCCc1cc(Cl)c(Cl)cc1NC(=O)Nc1c(C)c(OCC2CCNCC2)nn1-c1ccccc1 [Example 41, 1-(4,5-dichloro-2-(3-methoxypropyl)phenyl)-3-(4-methyl-1-phenyl-3-(piperidin-4-ylmethoxy)-1H-pyrazol-5-yl)urea hydrochloride]"
10,100 to 1000 nM,"COCCOc1ncc(C(F)(F)F)cc1NC(=O)Nc1c(C)c(-c2cnn(C)c2)nn1-c1ccccc1 [Example 4, 1-(1′,4-dimethyl-1-phenyl-1H,1′H-[3,4′-bipyrazol]-5-yl)-3-(2-(2-methoxyethoxy)-5-(trifluoromethyl)pyridin-3-yl)urea]"
11,< 100 nM,"COCCCc1cc(Cl)c(Cl)cc1NC(=O)Nc1c(C)c(OCCC2CCN(C)CC2)nn1-c1ccccc1 [Example 29, 1-(4,5-dichloro-2-(3-methoxypropyl)phenyl)-3-(4-methyl-3-(2-(1-methylpiperidin-4-yl)ethoxy)-1-phenyl-1H-pyrazol-5-yl)urea]"
12,< 100 nM,"COCCCc1cc(Cl)c(Cl)cc1NC(=O)Nc1c(C)c(OC[C@@H]2CN(C)CCO2)nn1-c1ccccc1 [Example 31, (S)-1-(4,5-dichloro-2-(3-methoxypropyl)phenyl)-3-(4-methyl-3-((4-methylmorpholin-2-yl)methoxy)-1-phenyl-1H-pyrazol-5-yl)urea]"
13,1000 to 10000 nM,"COCCOc1nc(C)ccc1NC(=O)Nc1c(C)c(-c2cnn(C)c2)nn1-c1ccccc1 [Example 1, 1-(1′,4-dimethyl-1-phenyl-1H,1′H-[3,4′-bipyrazol]-5-yl)-3-(2-(2-methoxyethoxy)-6-methylpyridin-3-yl)urea]"
14,100 to 1000 nM,"COCCOc1nc(C(F)(F)F)ccc1NC(=O)Nc1c(C)c(-c2cnn(C)c2)nn1-c1ccccc1 [Example 7, 1-(1′,4-dimethyl-1-phenyl-1H,1′H-[3,4′-bipyrazol]-5-yl)-3-(2-(2-methoxyethoxy)-6-(trifluoromethyl)pyridin-3-yl)urea]"
15,< 100 nM,"COCC(F)(F)Cc1cc(Cl)c(Cl)cc1NC(=O)Nc1c(C)c(-c2ccc(=O)n(C)c2)nn1-c1ccccc1 [Example 20, 1-(4,5-dichloro-2-(2,2-difluoro-3-methoxypropyl)phenyl)-3-(4-methyl-3-(1-methyl-6-oxo-1,6-dihydropyridin-3-yl)-1-phenyl-1H-pyrazol-5-yl)urea]"
16,< 100 nM,"COCCCc1cc(Cl)c(Cl)cc1NC(=O)Nc1c(C)c(OCC2CCCN2)nn1-c1ccccc1 (stereo not shown) [Example 43, 1-(4,5-dichloro-2-(3-methoxypropyl)phenyl)-3-(4-methyl-1-phenyl-3-(pyrrolidin-2-ylmethoxy)-1H-pyrazol-5-yl)urea hydrochloride]"
17,< 100 nM,"COCCCc1cc(Cl)c(Cl)cc1NC(=O)Nc1c(C)c(OC[C@H](O)CO)nn1-c1ccccc1 [Example 21, (R)-1-(4,5-dichloro-2-(3-methoxypropyl)phenyl)-3-(3-(2,3-dihydroxypropoxy)-4-methyl-1-phenyl-1H-pyrazol-5-yl)urea]"
18,< 100 nM,"COCCCc1cc(Cl)c(Cl)cc1NC(=O)Nc1c(C)c(OCC2CN(C)C2)nn1-c1ccccc1 [Example 37, 1-(4,5-dichloro-2-(3-methoxypropyl)phenyl)-3-(4-methyl-3-((1-methylazetidin-3-yl)methoxy)-1-phenyl-1H-pyrazol-5-yl)urea]"
19,< 100 nM,"CNC(=O)c1nn(-c2ccccc2)c(NC(=O)Nc2cc(Cl)c(Cl)cc2CCCOC)c1C [Example 16, 5-(3-(4,5-dichloro-2-(3-methoxypropyl)phenyl)ureido)-N,4-dimethyl-1-phenyl-1H-pyrazole-3-carboxamide]"
